Source: article PMC10870825, “Design, synthesis, and inhibitory activity of hydroquinone ester derivatives against mushroom tyrosinase” (RSC Advances, 2024)
“Also recorded” adds a separate entry of the source. Where two headings read alike, the source gives them in different places.

Columns and labels:
[1] = molecular target: T1, mushroom tyrosinase (mTyr) (Agaricus bisporus, UniProt C7FF04); assay: Inhibitory activity assay on mTyr with L-tyrosine as substrate; format: biochemical; settings: for Concentration at maximum inhibition rate: second figure of the cell rate/concentration
Method: The synthesized hydroquinone ester derivatives were dissolved in 3% dimethyl sulfoxide (DMSO) solution and then diluted with phosphate-buffered solution (PBS, pH 6.86, 100 mM) to obtain different concentrations. […] The plate was incubated at 37 °C for 30 minutes, after which 20 μL of L-tyrosine solution (1 mM) was added and mixed. The absorbance at a wavelength of 475 nm was measured using a SpectraMax 190 microplate reader (MolecularDevices, USA) continuously for 30 minutes. PBS was used as a blank control, and kojic acid was used as a positive control.

[2] = molecular target: T1, mushroom tyrosinase (mTyr); assay: Inhibition reversibility and type assay (Lineweaver–Burk kinetics) on mTyr; format: biochemical; settings: for Inhibition type: Lineweaver–Burk plots, 300 U/mL mTyr, varying L-tyrosine
Method: The methodology for evaluating the reversibility of inhibition and the inhibition type of the compounds on mTyr closely parallels the procedure outlined in the inhibitory activity assay of compounds on mTyr.
For the evaluation of inhibition reversibility, a constant concentration of 1 mM L-tyrosine was employed. […] The absorption was measured to determine the initial enzymatic reaction rate corresponding to each enzyme concentration. Specifically, the initial enzymatic reaction rate was calculated by subtracting the initial absorbance from the absorbance recorded at a specific time and then dividing the result by the corresponding time interval.[32] Subsequently, the collected data were plotted on a scatter plot, with the initial enzymatic reaction rate represented on the Y-axis and the enzyme concentration on the X-axis. In cases of reversibility, this will result in fitting a set of straight lines passing through the origin. Conversely, when reversibility was absent, a set of parallel lines emerged as the fit.[33]
In order to investigate the inhibition type, a final concentration of 300 U per mL mTyr was employed, accompanied by varying concentrations of L-tyrosine. The enzymatic reaction rate was evaluated for different concentrations of compounds 3a–3e. Subsequently, the ΔOD475 values were plotted against the L-tyrosine concentration using the Lineweaver–Burk equation, allowing for the creation of double reciprocal plots.

[3] = tested on: human epidermal melanoma A375 cells; assay: CCK-8 cell proliferation and cytotoxicity assay, A375 cells; format: cell-based
Method: (§1) Cell proliferation and cytotoxicity assays were performed using the CCK-8 on Human Epidermal Melanoma A375 and HaCaT cells. Initially, the cells were seeded in 96-well plates at a density of 4 × 10^4 cells per well and incubated for 24 hours at 37 °C with 5% CO2 in a humidified incubator. Each treatment was conducted in six duplicate wells. Various concentrations of the tested compounds were added to the wells, and the cells were further incubated for 72 hours. After the incubation period, CCK-8 solution was added to each well and incubated for an additional 2 hours. The absorbance of each well at 450 nm was measured using an absorbance microplate reader (BioTek ELx800, USA). Negative controls with cells treated with distilled water and positive controls with cells were treated with 10 μg mL^−1 taxol was included in the assay. The percentage of cell growth inhibition was calculated using eqn (2).2 [drawing 1] where G1 represents the absorbance of a mixture containing cells, medium, and CCK8, G2 represents the absorbance of absorbance of a mixture containing cells, medium, CCK8, and the test compound; G3 represents a mixture containing medium and CCK8.
(§2) Cell growth and morphology were observed using an inverted microscope (Olympus IX51, Japan). The experiments were conducted in triplicate to ensure accuracy and consistency of results.

[4] = tested on: human immortalized keratinocyte (HaCaT) non-tumor cells; assay: CCK-8 cell proliferation and cytotoxicity assay, HaCaT cells; format: cell-based
Method: as §1, §2

[5] = molecular target: T1, mushroom tyrosinase (mTyr); settings: read-out: IC50 for inhibiting mTyr activity; literature value; ref [15]; cited from earlier work
[6] = substrate L-tyrosine, read-out: IC50 for inhibiting mTyr activity

T1 sequence (C7FF04 1-392): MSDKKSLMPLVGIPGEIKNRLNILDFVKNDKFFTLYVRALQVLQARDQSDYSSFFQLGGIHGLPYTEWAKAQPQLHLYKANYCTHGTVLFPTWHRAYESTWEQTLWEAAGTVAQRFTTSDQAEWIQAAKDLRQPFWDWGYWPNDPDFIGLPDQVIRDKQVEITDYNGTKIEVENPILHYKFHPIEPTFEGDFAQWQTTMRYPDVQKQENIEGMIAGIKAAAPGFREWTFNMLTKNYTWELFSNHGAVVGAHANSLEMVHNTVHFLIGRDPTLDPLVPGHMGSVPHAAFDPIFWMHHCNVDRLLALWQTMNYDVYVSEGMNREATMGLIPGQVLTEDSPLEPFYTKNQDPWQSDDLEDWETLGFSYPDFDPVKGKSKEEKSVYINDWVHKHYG

Structure (SMILES)	Concentration at maximum inhibition rate [1] [µM]	IC50 [1, 6] [µM]	melting point [°C]	Inhibition type [2]	maximum reaction rate (Vm) of mTyr ([2]; compound concentration 5 μM)	maximum reaction rate (Vm) of mTyr ([2]; compound concentration 10 μM)	maximum reaction rate (Vm) of mTyr ([2]; compound concentration 20 μM)	other results
O=C(O)C=Cc1ccc(O)cc1 [4-Hydroxycinnamic acid, 4-hydroxycinnamic acid, reference compound]	50	–	–	–	–	–	–	IC50 [1]: 16.4 ± 5.42 µM
O=C(Oc1ccc(OC(=O)c2ccc(F)cc2)cc1)c1ccc(F)cc1 [Compound 3f, 1,4-phenylene bis(4-fluorobenzoate)]	100	54.2 ± 8.65	196 to 198	–	–	–	–	–
O=C(C=Cc1ccccc1)Oc1ccc(O)cc1 [Compound 3b, 4-hydroxyphenyl cinnamate]	2.5	0.18 ± 0.06	171 to 173	Mix-noncompetitive; also recorded: mixed-type inhibition	–	–	–	maximum reaction rate (Vm) of mTyr ([2]; compound concentration 1 μM): 0.7572 ×103, min-1; maximum reaction rate (Vm) of mTyr ([2]; compound concentration 2 μM): 0.3461 ×103, min-1; maximum reaction rate (Vm) of mTyr ([2]; compound concentration 4 μM): 0.2145 ×103, min-1; Ki ([2]; read-out: free enzyme inhibition constant (KI)): 1.88 µM; mTyr–substrate complex inhibition constant (KIS) ([2]; secondary plots, mixed-type inhibition): 0.3395 µM; inhibition at 50 µM ([3]; A-375, 50 μM, read-out: inhibition rate on A375 cells): 60.9%; IC50 ([3]; A-375, 72 hours, CCK-8, read-out: IC50 against A375 cells): 40.8 µM; inhibition at 50 µM ([4]; Homo sapiens, HaCaT, 50 μM, read-out: inhibition rate on HaCaT cells): 9.09%; IC50 ([4]; Homo sapiens, HaCaT, 72 hours, CCK-8, read-out: IC50 against HaCaT cells): 169 µM; inhibition rate on HaCaT cells ([4]; concentration range 3.125–25 μM): below 5%
O=C(CCc1ccccc1)Oc1ccc(OC(=O)CCc2ccccc2)cc1 [Compound 3g, 1,4-phenylene bis(3-phenylpropanoate)]	–	–	128 to 130	–	–	–	–	–
Oc1ccc(O)cc1 [Hydroquinone, hydroquinone]	75	22.78 ± 0.16	–	–	–	–	–	–
O=C(Oc1ccc(O)cc1)c1ccccc1 [Compound 3d, 4-hydroxyphenyl benzoate]	75	20.5 ± 1.79	150 to 152	competitive inhibition; also recorded: competitive inhibitors	0.9216 ×103, min-1	0.9208 ×103, min-1	0.9209 ×103, min-1	–
O=C(O)/C=C/c1ccccc1 [Cinnamic acid, cinnamic acid]	–	–	–	–	–	–	–	IC50 [5]: 201 ± 5.3 µM
O=C(/C=C/c1ccc(O)cc1)Oc1ccc(O)cc1 [Compound 3a, 4-hydroxyphenyl (2E)-3-(4-hydroxyphenyl) prop-2-enoate]	10	1.75 ± 0.02	217 to 220	Noncompetitive; also recorded: non-competitive inhibition; also recorded: non-competitive inhibitors	0.4272 ×103, min-1	0.2843 ×103, min-1	0.1836 ×103, min-1	–
O=C(Oc1ccc(O)cc1)c1ccc(F)cc1 [Compound 3e, 4-hydroxyphenyl 4-fluorobenzoate]	100	24.7 ± 3.04	142 to 144	competitive inhibition; also recorded: competitive inhibitors	1.474 ×103, min-1	1.470 ×103, min-1	1.468 ×103, min-1	–
O=C(CCc1ccccc1)Oc1ccc(O)cc1 [Compound 3c, 4-hydroxyphenyl 3-phenylpropanoate]	50	7.46 ± 0.9	149 to 151	Noncompetitive; also recorded: non-competitive inhibition; also recorded: non-competitive inhibitors	0.6327 ×103, min-1	0.3424 ×103, min-1	0.2581 ×103, min-1	–
